The source made the active and inactive calls. Cut-off read from the data, not from the text of the source, for most assays here: actives have a measured EC50 and inactives only a lower limit.
What was measured:
cells [1] = type: functional, cell-based
cells [2] = type: functional, cell-based; remark: listed apart in the source
[3] = target: T1, Mannose-6-phosphate isomerase (Homo sapiens, UniProt P34949); assay: human PMI inhibitors, high substrate, primary screen, biochemical, fluorescence intensity, high mannose 6-phosphate (AID 1220)
T1 sequence (P34949 whole entry): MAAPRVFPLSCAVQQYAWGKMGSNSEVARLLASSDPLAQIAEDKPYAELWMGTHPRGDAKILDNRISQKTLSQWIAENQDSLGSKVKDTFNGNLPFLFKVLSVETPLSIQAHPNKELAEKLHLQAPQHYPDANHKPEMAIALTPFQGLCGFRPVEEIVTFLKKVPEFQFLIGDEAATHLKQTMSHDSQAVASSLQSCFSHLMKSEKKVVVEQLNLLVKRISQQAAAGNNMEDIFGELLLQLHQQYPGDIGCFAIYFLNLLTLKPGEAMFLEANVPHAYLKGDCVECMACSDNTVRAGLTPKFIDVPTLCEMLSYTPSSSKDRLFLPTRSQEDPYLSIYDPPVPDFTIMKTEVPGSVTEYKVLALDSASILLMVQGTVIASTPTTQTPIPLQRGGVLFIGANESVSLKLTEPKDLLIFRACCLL

[4] = target: T2, DNA repair protein RAD52 homolog (Homo sapiens, UniProt P43351); type: functional, biochemical
T2 sequence (P43351 whole entry): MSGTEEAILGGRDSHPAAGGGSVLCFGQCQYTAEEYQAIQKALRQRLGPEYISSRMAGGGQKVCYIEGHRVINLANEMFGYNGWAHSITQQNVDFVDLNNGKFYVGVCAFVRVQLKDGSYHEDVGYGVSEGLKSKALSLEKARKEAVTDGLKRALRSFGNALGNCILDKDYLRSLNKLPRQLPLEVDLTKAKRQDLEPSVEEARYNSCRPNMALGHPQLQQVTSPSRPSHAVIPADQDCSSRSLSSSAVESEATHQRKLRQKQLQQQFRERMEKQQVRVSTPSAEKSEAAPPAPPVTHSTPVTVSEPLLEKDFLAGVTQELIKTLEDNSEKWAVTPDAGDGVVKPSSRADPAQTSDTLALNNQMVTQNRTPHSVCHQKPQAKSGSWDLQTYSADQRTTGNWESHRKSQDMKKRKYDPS

[5] = inhibitors of intracellular T. cruzi replication, confirmation, NIH3T3 host cells, beta-gal luminescence (AID 2044); type: functional, cell-based;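 note: intracellular parasites grown in NIH/3T3 mouse fibroblasts as host cells; luminescent beta-galactosidase reporter signal from transgenic T. cruzi replicating inside host cells; inhibitors lower the luminescence signal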
[6] = Luminescence Cell-Based Dose Confirmation HTS to Identify Activators of 5'UTR Stem-Loop Driven Alpha-Synuclein mRNA Translation in H4 Neuroglioblastoma Cells. [Related pubchem assays: 1829 (Project Summary), 1814 (Primary HTS)]; type: functional
[7] = cytotoxicity toward NIH3T3 fibroblasts, dose response, counter-screen, cell-based, ATP luminescence, mouse fibroblasts (AID 2010); type: functional;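 note: cells exposed to compound for about 90 hours before reading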
H4 = assay: Luminescence Cell-Based Dose Response HTS to Identify Activators of 5'UTR Stem-Loop Driven Prion Protein mRNA Translation in H4 Neuroglioblastoma Cells. [Related pubchem assays: 1829 (Project Summary), 1814 (Primary HTS)]; type: functional; conditions: Homo sapiens
[8] = Luminescence Cell-Based Dose Response HTS to Identify Activators of Luciferase Translation or Activity in H4 […] Cells. [Related pubchem assays: 1829 (Project Summary), 1814 (Primary HTS)]; type: functional
[9] = MC4R antagonists, dose response, counter-screen for LGR2 antagonist project, cell-based, plate reader, cherry pick (AID 743444); type: functional;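 note: transfected HEK 293 cells stimulated with alpha-MSH peptide; potency of inhibitors of the alpha-MSH evoked signal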
[10] = HepG2 cell cytotoxicity, dose response, cytotoxicity control, plate reader, cherry-pick, antagonist series (AID 743416); type: functional, cell-based
[11] = LGR2 antagonists, dose response, cell-based, HEK293, CRE-luciferase reporter, cherry pick, set 2 (AID 743343); type: functional;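 note: transfected cells were stimulated with diluted bursicon conditioned medium after compound addition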
Protein RecA = target: T3, Protein RecA (Mycobacterium tuberculosis, UniProt P9WHJ3); assay: Fluorescence Cell-Free Homogeneous Dose Retest to Identify Inhibitors of RecA-Intein Splicing Activity. [Related pubchem assays (depositor defined):AID2097, AID2223, AID489010, AID492950]; type: functional
T3 sequence (P9WHJ3 whole entry): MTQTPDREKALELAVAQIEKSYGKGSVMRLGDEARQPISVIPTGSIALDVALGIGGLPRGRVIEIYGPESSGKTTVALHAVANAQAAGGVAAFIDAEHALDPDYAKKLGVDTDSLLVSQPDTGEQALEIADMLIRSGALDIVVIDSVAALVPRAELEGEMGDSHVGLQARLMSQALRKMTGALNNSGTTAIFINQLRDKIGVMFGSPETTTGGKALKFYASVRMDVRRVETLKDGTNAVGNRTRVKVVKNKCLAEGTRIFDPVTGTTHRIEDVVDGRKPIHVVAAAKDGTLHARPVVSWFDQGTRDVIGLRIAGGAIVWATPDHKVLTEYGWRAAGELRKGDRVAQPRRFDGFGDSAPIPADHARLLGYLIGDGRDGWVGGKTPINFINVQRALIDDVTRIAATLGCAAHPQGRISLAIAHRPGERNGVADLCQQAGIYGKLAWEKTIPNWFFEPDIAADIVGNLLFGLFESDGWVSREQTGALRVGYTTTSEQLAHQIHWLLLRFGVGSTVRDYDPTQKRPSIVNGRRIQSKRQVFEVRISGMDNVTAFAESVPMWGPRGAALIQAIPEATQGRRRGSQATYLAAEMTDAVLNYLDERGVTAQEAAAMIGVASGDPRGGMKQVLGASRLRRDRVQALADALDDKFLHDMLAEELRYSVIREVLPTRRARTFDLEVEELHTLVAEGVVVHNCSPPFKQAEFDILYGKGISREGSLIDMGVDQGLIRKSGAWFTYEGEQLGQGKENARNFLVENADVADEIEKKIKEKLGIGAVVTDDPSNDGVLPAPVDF

[12] = target: T4, Replicative DNA helicase DnaB (Mycobacterium tuberculosis, UniProt P9WMR3); assay: DnaB intein splicing inhibitors, dose response, biochemical, cell-free fluorescence (AID 449749); type: functional
T4 sequence (P9WMR3 whole entry): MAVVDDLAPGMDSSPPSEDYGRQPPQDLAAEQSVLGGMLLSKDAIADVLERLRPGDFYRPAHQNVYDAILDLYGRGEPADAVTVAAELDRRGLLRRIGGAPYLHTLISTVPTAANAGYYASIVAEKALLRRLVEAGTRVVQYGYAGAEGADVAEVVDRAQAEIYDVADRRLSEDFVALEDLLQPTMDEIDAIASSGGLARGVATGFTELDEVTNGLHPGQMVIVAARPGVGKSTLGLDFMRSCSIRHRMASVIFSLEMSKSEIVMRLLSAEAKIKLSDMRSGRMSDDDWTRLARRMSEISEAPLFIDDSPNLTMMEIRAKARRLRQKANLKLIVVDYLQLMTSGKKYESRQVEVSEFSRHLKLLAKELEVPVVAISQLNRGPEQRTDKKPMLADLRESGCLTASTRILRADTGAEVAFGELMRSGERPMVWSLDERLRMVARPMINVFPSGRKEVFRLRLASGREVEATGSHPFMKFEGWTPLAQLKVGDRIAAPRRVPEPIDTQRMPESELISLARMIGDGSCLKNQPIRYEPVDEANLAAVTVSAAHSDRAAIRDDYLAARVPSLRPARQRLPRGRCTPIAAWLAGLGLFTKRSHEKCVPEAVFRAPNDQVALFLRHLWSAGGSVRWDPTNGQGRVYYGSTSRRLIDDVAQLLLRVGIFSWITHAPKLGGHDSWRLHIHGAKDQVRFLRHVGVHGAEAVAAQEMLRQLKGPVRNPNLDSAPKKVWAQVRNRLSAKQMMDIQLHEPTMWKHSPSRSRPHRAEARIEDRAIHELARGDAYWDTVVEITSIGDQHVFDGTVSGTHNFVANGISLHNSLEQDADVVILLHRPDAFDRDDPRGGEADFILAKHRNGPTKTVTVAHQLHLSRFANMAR

[13] = A549 cell cytotoxicity, dose response, cytotoxicity control, plate reader, cherry-pick, antagonist series (AID 743412); type: functional, cell-based
[14] = inhibitors of firefly luciferase expression or activity, dose response, H4 neuroglioma cells, luminescence (AID 1990); type: functional, cell-based
[15] = Luminescence Cell-Based Dose Response HTS to Identify Inhibitors of 5'UTR Stem-Loop Driven Prion Protein mRNA Translation in H4 Neuroglioblastoma Cells. [Related pubchem assays: 1827 (Project Summary), 1813 (Primary HTS)]; type: functional
[16] = inhibitors of SNCA 5'UTR-driven reporter translation, confirmation, H4 neuroglioma cells, luminescence (AID 1988); type: functional, cell-based

## Cc1nc(NCCc2ccccc2)c(C#N)c(C)c1[N+](=O)[O-]
Cells [1]
  EC50: > 350 µM (not active)
Cells [2]
  EC50: > 350 µM (not active)

## CCOc1cc(N2CCOCC2)c(OCC)cc1N=C(S)NCCCOC
[3]
  IC50: > 50 µM (not active)

## COc1cccc(-c2nc(N3CCN(C)CC3)c3ccccc3n2)c1O
[4]
  AC50: 3.52 µM (active)
[5]
  EC50: < 0.1 µM (active)
[6]
  EC50: > 120 µM (not active)
[7]
  EC50: > 60 µM (not active)
H4
  EC50: > 120 µM (not active)
[8]
  EC50: 12.9 µM (active)

## CCOC(=O)c1sc(NC(=O)Nc2ccccc2F)nc1C
[9]
  AC50: 4.34 µM (active)
[10]
  AC50: > 52 µM (inactive)
[11]
  AC50: 2.48 µM (active)

## CCCc1n[nH]c2c1C(c1ccoc1)C(C#N)=C(N)O2 (centres undefined)
Cells [1]
  EC50: > 350 µM (not active)
Protein RecA
  EC50: 2.39 µM (active)
[12]
  AC50: 4.51 µM (active)
Cells [2]
  EC50: > 350 µM (not active)

## C=CCc1c(C)nc2cc(-c3ccc(C)cc3)nn2c1O
[9]
  AC50: 26.2 µM (active)
[13]
  AC50: 13.6 µM (active)
[10]
  AC50: 22.6 µM (active)
[11]
  AC50: 26.4 µM (active)

## CC(=O)OCCc1c2ccccc2c(CCCN(C)C)c2ccccc12
[14]
  EC50: > 120 µM (not active)
[4]
  AC50: 11.2 µM (active)
[15]
  EC50: > 120 µM (not active)
[16]
  EC50: > 120 µM (not active)
